These compounds were tested against T1, hMAGL (Homo sapiens, UniProt Q99685) (assay: 2-AG assay: MAGL inhibition, hydrolysis of 2-arachidonoylglycerol to arachidonic acid followed by mass spectrometry).
T1 sequence (Q99685 1-303): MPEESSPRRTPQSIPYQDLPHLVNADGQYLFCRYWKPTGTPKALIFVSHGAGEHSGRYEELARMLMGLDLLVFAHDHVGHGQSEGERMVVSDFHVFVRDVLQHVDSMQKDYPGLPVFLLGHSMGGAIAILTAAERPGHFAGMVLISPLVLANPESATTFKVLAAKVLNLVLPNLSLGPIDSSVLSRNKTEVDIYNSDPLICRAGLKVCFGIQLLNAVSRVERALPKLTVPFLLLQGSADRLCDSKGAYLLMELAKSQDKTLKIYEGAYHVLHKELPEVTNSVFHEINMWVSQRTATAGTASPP
Assay type: biochemical
Outline: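 Read-out is LC-MS/MS of arachidonic acid released from 2-arachidonoylglycerol (8 μM final), normalised to d8-arachidonic acid internal standard after acetonitrile quench. Enzyme […] and compound were pre-mixed 15 min, then reacted 30 min, both at RT, in Tris/EDTA buffer with 0.01% Tween-20 and 2.5% DMSO.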

IC50 [nM] | Structure (SMILES)
50.1 | O=C(N1CC2(CC(n3cnc(C(F)(F)F)n3)C2)C1)N1CC2(CN(Cc3cc(C(F)(F)F)on3)C2)C1 [Example 189, [6-[[5-(trifluoromethyl)isoxazol-3-yl]methyl]-2,6-diazaspiro[3.3]heptan-2-yl]-[6-[3-(trifluoromethyl)-1,2,4-triazol-1-yl]-2-azaspiro[3.3]heptan-2-yl]methanone]
4.84 | O=C(N1CC2(CCN(Cc3nc(C(F)(F)F)cs3)CC2)C1)N1CC2(CC(c3cc(C4CC4)n[nH]3)C2)C1 [Example 174, [6-(3-cyclopropyl-1H-pyrazol-5-yl)-2-azaspiro[3.3]heptan-2-yl]-[7-[[4-(trifluoromethyl)thiazol-2-yl]methyl]-2,7-diazaspiro[3.5]nonan-2-yl]methanone]
4.3 | N#Cc1cnn(CC2CC3(C2)CN(C(=O)N2CC4(CC(c5cc(C6CC6)n[nH]5)C4)C2)C3)c1 [Example 37]
311 | Cc1onc(C2CC2)c1CN1CC2(C1)CN(C(=O)N1CC3(CC(n4cnc(C5(O)CC5)n4)C3)C1)C2 [Example 269, [6-[(3-cyclopropyl-5-methyl-isoxazol-4-yl)methyl]-2,6-diazaspiro[3.3]heptan-2-yl]-[6-[3-(1-hydroxycyclopropyl)-1,2,4-triazol-1-yl]-2-azaspiro[3.3]heptan-2-yl]methanone]
22.9 | O=C(N1CC2(CC(n3cnc(C4(O)CC4)n3)C2)C1)N1CC2(CN(Cc3snnc3C3CCC3)C2)C1 [Example 78, [6-[(4-cyclobutylthiadiazol-5-yl)methyl]-2,6-diazaspiro[3.3]heptan-2-yl]-[6-[3-(1-hydroxycyclopropyl)-1,2,4-triazol-1-yl]-2-azaspiro[3.3]heptan-2-yl]methanone]
0.2 | Cc1cc(C(F)F)nn1CC1CC2(C1)CN(C(=O)N1CC3(CC(n4cnc(C5CC5)n4)C3)C1)C2 [Example 95, [6-(3-cyclopropyl-1,2,4-triazol-1-yl)-2-azaspiro[3.3]heptan-2-yl]-[6-[[3-(difluoromethyl)-5-methyl-pyrazol-1-yl]methyl]-2-azaspiro[3.3]heptan-2-yl]methanone]
0.17 | O=C(N1CC2(CC(Cc3cc(C(F)F)n[nH]3)C2)C1)N1CC2(CC(n3cnc(C4CC4)n3)C2)C1 [Example 296, [6-(3-cyclopropyl-1,2,4-triazol-1-yl)-2-azaspiro[3.3]heptan-2-yl]-[6-[[3-(difluoromethyl)-1H-pyrazol-5-yl]methyl]-2-azaspiro[3.3]heptan-2-yl]methanone]
11.8 | Cn1nc(CC2CC3(C2)CN(C(=O)N2CC4(CC(n5cnc(C6(N)CC6)n5)C4)C2)C3)cc1C(F)(F)F [Example 330, [6-[3-(1-aminocyclopropyl)-1,2,4-triazol-1-yl]-2-azaspiro[3.3]heptan-2-yl]-[6-[[l-methyl-5-(trifluoromethyl)pyrazol-3-yl]methyl]-2-azaspiro[3.3]heptan-2-yl]methanone]
1.45 | O=C(N1CC2(CC(Cn3cc(C(F)(F)F)nn3)C2)C1)N1CC2(CC(n3cnc(C4CC4)n3)C2)C1 [Example 104, [6-(3-cyclopropyl-1,2,4-triazol-1-yl)-2-azaspiro[3.3]heptan-2-yl]-[6-[[4-(trifluoromethyl)triazol-1-yl]methyl]-2-azaspiro[3.3]heptan-2-yl]methanone]
907 | CCc1nc(C)c(CN2CC3(C2)CN(C(=O)N2CC4(CC(n5cnc(C6CC6)n5)C4)C2)C3)[nH]1 [Example 306, [6-(3-cyclopropyl-1,2,4-triazol-1-yl)-2-azaspiro[3.3]heptan-2-yl]-[6-[(2-ethyl-4-methyl-1H-imidazol-5-yl)methyl]-2,6-diazaspiro[3.3]heptan-2-yl]methanone]
3.85 | O=C(N1CC2(CC(c3cc(C4CC4)n[nH]3)C2)C1)N1CC2(CN(Cc3nc(C4CC4)ns3)C2)C1 [Example 42, [6-(3-cyclopropyl-1H-pyrazol-5-yl)-2-azaspiro[3.3]heptan-2-yl]-[6-[(3-cyclopropyl-1,2,4-thiadiazol-5-yl)methyl]-2,6-diazaspiro[3.3]heptan-2-yl]methanone]
10.3 | O=C(N1CC2(CC(Cn3ncnc3C(F)(F)F)C2)C1)N1CC2(CC(n3cnc(C(F)(F)F)n3)C2)C1 [Example 333, [6-[3-(trifluoromethyl)-1,2,4-triazol-1-yl]-2-azaspiro[3.3]heptan-2-yl]-[6-[[5-(trifluoromethyl)-1,2,4-triazol-1-yl]methyl]-2-azaspiro[3.3]heptan-2-yl]methanone]
2.4 | Cn1nc(CC2CC3(C2)CN(C(=O)N2CC4(CC(n5cnc(C6(O)CC6)n5)C4)C2)C3)c(C(F)(F)F)n1 [Example 137]
9.74 | O=C(N1CC2(CC(Cc3cc(C(F)F)n[nH]3)C2)C1)N1CC2(CC(n3cnc(C(F)F)n3)C2)C1 [Example 334, [6-[[3-(difluoromethyl)-1H-pyrazol-5-yl]methyl]-2-azaspiro[3.3]heptan-2-yl]-[6-[3-(difluoromethyl)-1,2,4-triazol-1-yl]-2-azaspiro[3.3]heptan-2-yl]methanone]
18.3 | O=C(N1CC2(CC(Cc3cn(C4CC4)nc3C(F)(F)F)C2)C1)N1CC2(CC(n3cnc(C4(O)CC4)n3)C2)C1 [Example 63, [6-[[1-cyclopropyl-3-(trifluoromethyl)pyrazol-4-yl]methyl]-2-azaspiro[3.3]heptan-2-yl]-[6-[3-(1-hydroxycyclopropyl)-1,2,4-triazol-1-yl]-2-azaspiro[3.3]heptan-2-yl]methanone]
8.82 | O=C(N1CC2(CC(n3cnc(C4CC4)n3)C2)C1)N1CC2(CN(Cc3conc3C(F)(F)F)C2)C1 [Example 219, [6-(3-cyclopropyl-1,2,4-triazol-1-yl)-2-azaspiro[3.3]heptan-2-yl]-[6-[[3-(trifluoromethyl)isoxazol-4-yl]methyl]-2,6-diazaspiro[3.3]heptan-2-yl]methanone]
8.12 | CC(C)(C)c1ncc(CN2CC3(C2)CN(C(=O)N2CC4(CC(n5cnc(C6(O)CC6)n5)C4)C2)C3)s1 [Example 58, [6-[(2-tert-butylthiazol-5-yl)methyl]-2,6-diazaspiro[3.3]heptan-2-yl]-[6-[3-(1-hydroxycyclopropyl)-1,2,4-triazol-1-yl]-2-azaspiro[3.3]heptan-2-yl]methanone]
34.6 | O=C(N1CC2(CC(n3cnc(C4CC4)n3)C2)C1)N1CC2(CN(Cc3ccnn3C(F)(F)F)C2)C1 [Example 226, [6-(3-cyclopropyl-1,2,4-triazol-1-yl)-2-azaspiro[3.3]heptan-2-yl]-[6-[[2-(trifluoromethyl)pyrazol-3-yl]methyl]-2,6-diazaspiro[3.3]heptan-2-yl]methanone]
302 | O=C(N1CC2(CCC(Cc3nnc(C(F)(F)F)[nH]3)CC2)C1)N1CC2(CC(n3cnc(C4CC4)n3)C2)C1 [Example 36, [6-(3-cyclopropyl-1,2,4-triazol-1-yl)-2-azaspiro[3.3]heptan-2-yl]-[7-[[5-(trifluoromethyl)-4H-1,2,4-triazol-3-yl]methyl]-2-azaspiro[3.5]nonan-2-yl]methanone]
69.2 | O=C(N1CC2(CC(n3cnc(C4CC4)n3)C2)C1)N1CC2(CN(Cc3ccnn3CC(F)(F)F)C2)C1 [Example 223, [6-(3-cyclopropyl-1,2,4-triazol-1-yl)-2-azaspiro[3.3]heptan-2-yl]-[6-[[2-(2,2,2-trifluoroethyl)pyrazol-3-yl]methyl]-2,6-diazaspiro[3.3]heptan-2-yl]methanone]
1.07 | Cc1cc(C2CC2)nn1CC1CC2(C1)CN(C(=O)N1CC3(CC(n4cnc(C(F)(F)F)n4)C3)C1)C2 [Example 134, [6-[(3-cyclopropyl-5-methyl-pyrazol-1-yl)methyl]-2-azaspiro[3.3]heptan-2-yl]-[6-[3-(trifluoromethyl)-1,2,4-triazol-1-yl]-2-azaspiro[3.3]heptan-2-yl]methanone]
0.87 | Cn1ncc(C(F)(F)F)c1CN1CCC2(CC1)CN(C(=O)N1CC3(CC(n4cnc(C(F)(F)F)n4)C3)C1)C2 [Example 65, [7-[[2-methyl-4-(trifluoromethyl)pyrazol-3-yl]methyl]-2,7-diazaspiro[3.5]nonan-2-yl]-[6-[3-(trifluoromethyl)-1,2,4-triazol-1-yl]-2-azaspiro[3.3]heptan-2-yl]methanone]
15.3 | O=C(N1CC2(CC(n3cnc(C(F)(F)F)n3)C2)C1)N1CC2(CN(Cc3ncc(C(F)F)s3)C2)C1 [Example 187, [6-[[5-(difluoromethyl)thiazol-2-yl]methyl]-2,6-diazaspiro[3.3]heptan-2-yl]-[6-[3-(trifluoromethyl)-1,2,4-triazol-1-yl]-2-azaspiro[3.3]heptan-2-yl]methanone]
3.59 | O=C(N1CC2(CCN(Cc3ncc(C(F)F)s3)CC2)C1)N1CC2(CC(c3cc(C4CC4)n[nH]3)C2)C1 [Example 30, [6-(3-cyclopropyl-1H-pyrazol-5-yl)-2-azaspiro[3.3]heptan-2-yl]-[7-[[5-(difluoromethyl)thiazol-2-yl]methyl]-2,7-diazaspiro[3.5]nonan-2-yl]methanone]
9.94 | O=C(N1CC2(CC(n3cnc(C4CC4)n3)C2)C1)N1CC2(CN(Cc3nc(CC4CC4)no3)C2)C1 [Example 265, [6-[[3-(cyclopropylmethyl)-1,2,4-oxadiazol-5-yl]methyl]-2,6-diazaspiro[3.3]heptan-2-yl]-[6-(3-cyclopropyl-1,2,4-triazol-1-yl)-2-azaspiro[3.3]heptan-2-yl]methanone]
120 | CCc1nsc(CN2CC3(C2)CN(C(=O)N2CC4(CC(n5cnc(C(F)(F)F)n5)C4)C2)C3)n1 [Example 286, [6-[(3-ethyl-1,2,4-thiadiazol-5-yl)methyl]-2,6-diazaspiro[3.3]heptan-2-yl]-[6-[3-(trifluoromethyl)-1,2,4-triazol-1-yl]-2-azaspiro[3.3]heptan-2-yl]methanone]

— patent US20260374756A1, “HETEROCYCLIC COMPOUNDS AS INHIBITORS OF MONOACYLGLYCEROL LIPASE (MAGL)” (Hoffmann-La Roche Inc., priority 2022, published 2026)
